Measured values as given in PubChem BioAssay AID1963841 (Molecular Pharmacology Branch, DTP, NCI, 2024).
pIC50: −log10 of the molar value.

Test system: 439559-082-T-J2-PDC spheroid viability
Test: Anticancer human tumor 439559-082-T-J2-PDC patient-derived colon adenocarcinoma cell line growth inhibition [POLQ]
Conditions: spheroids with HUVEC and MSC; for pIC50: curve of first compound; for viability, T/C: stronger effect = lower value
Procedure, shortened: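 Three-cell-type spheroids modelling solid tumor plus stroma served as the readout system; POL inhibitors were tested individually and in combination, concentration ranges set by clinical Cmax where known.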

[1] = second compound 0.0316 µM, first compound 0.0316 µM
[2] = second compound 0.0316 µM, first compound 0.1 µM
[3] = second compound 0.0316 µM, first compound 0.316 µM
[4] = second compound 0.0316 µM, first compound 1 µM
[5] = second compound 0.0316 µM, first compound 3.16 µM
[6] = second compound 0.0316 µM, first compound 10 µM
[7] = second compound 0.1 µM, first compound 0.0316 µM
[8] = second compound 0.1 µM, first compound 0.1 µM
[9] = second compound 0.1 µM, first compound 0.316 µM
[10] = second compound 0.1 µM, first compound 1 µM
[11] = second compound 0.1 µM, first compound 3.16 µM
[12] = second compound 0.1 µM, first compound 10 µM
[13] = second compound 0.316 µM, first compound 0.0316 µM
[14] = second compound 0.316 µM, first compound 0.1 µM
[15] = second compound 0.316 µM, first compound 0.316 µM
[16] = second compound 0.316 µM, first compound 1 µM
[17] = second compound 0.316 µM, first compound 3.16 µM
[18] = second compound 0.316 µM, first compound 10 µM
[19] = second compound 1 µM, first compound 0.0316 µM
[20] = second compound 1 µM, first compound 0.1 µM
[21] = second compound 1 µM, first compound 0.316 µM
[22] = second compound 1 µM, first compound 1 µM
[23] = second compound 1 µM, first compound 3.16 µM
[24] = second compound 1 µM, first compound 10 µM
[25] = second compound 3.16 µM, first compound 0.0316 µM
[26] = second compound 3.16 µM, first compound 0.1 µM
[27] = second compound 3.16 µM, first compound 0.316 µM
[28] = second compound 3.16 µM, first compound 1 µM
[29] = second compound 3.16 µM, first compound 3.16 µM
[30] = second compound 3.16 µM, first compound 10 µM
[31] = second compound 10 µM, first compound 0.0316 µM
[32] = second compound 10 µM, first compound 0.1 µM
[33] = second compound 10 µM, first compound 0.316 µM
[34] = second compound 10 µM, first compound 1 µM
[35] = second compound 10 µM, first compound 3.16 µM
[36] = second compound 10 µM, first compound 10 µM
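Also: spheroids exposed to compounds for seven days before readout.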
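For viability, T/C in this document: 100% = DMSO vehicle control viability.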

For `CNCc1ccc(-c2[nH]c3cc(F)cc4c3c2CCNC4=O)cc1` + Nc1ccc(C#CCN(C(=O)Cc2ncc(C(F)(F)F)cc2C(F)(F)F)c2ccc(F)cc2)nn1, the pIC50 (second compound 0.0316 µM) was < 5.00, the pIC50 (second compound 0.1 µM) was < 5.00 and the pIC50 (second compound 0.316 µM) was < 5.00. For the same compound, the pIC50 (second compound 1 µM) was < 5.00, the pIC50 (second compound 3.16 µM) was < 5.00 and the pIC50 (second compound 10 µM) was < 5.00. It also gave a viability, T/C [1] of 91.6%, a viability, T/C [2] of 106% and a viability, T/C [3] of 102%. It also gave a viability, T/C [4] of 87.2%, a viability, T/C [5] of 116% and a viability, T/C [6] of 97.7%. It also gave a viability, T/C [7] of 100%, a viability, T/C [8] of 95.3% and a viability, T/C [9] of 97.5%. The viability, T/C [10] was 101%, the viability, T/C [11] was 102% and the viability, T/C [12] was 110%. It also gave a viability, T/C [13] of 109%, a viability, T/C [14] of 108% and a viability, T/C [15] of 87.4%. The viability, T/C [16] was 96.4%, the viability, T/C [17] was 105% and the viability, T/C [18] was 101%. For the same compound, the viability, T/C [19] was 101%, the viability, T/C [20] was 97.4% and the viability, T/C [21] was 105%. It also gave a viability, T/C [22] of 90.5%, a viability, T/C [23] of 107% and a viability, T/C [24] of 122%. The viability, T/C [25] was 100%, the viability, T/C [26] was 112% and the viability, T/C [27] was 111%. For the same compound, the viability, T/C [28] was 97.4%, the viability, T/C [29] was 110% and the viability, T/C [30] was 98.2%. For the same compound, the viability, T/C [31] was 94.8%, the viability, T/C [32] was 104% and the viability, T/C [33] was 110%. For the same compound, the viability, T/C [34] was 102%, the viability, T/C [35] was 104% and the viability, T/C [36] was 105%.
For `COc1ccc([C@@H](O)c2cc(-c3ncnc4cc(N5CCOCC5)ccc34)c(F)cc2Cl)nn1` + COC1C(OC(N)=O)C(O)C(Oc2ccc3c(O)c(NC(=O)c4ccc(O)c(CC=C(C)C)c4)c(=O)oc3c2C)OC1(C)C, the pIC50 (second compound 0.0316 µM) was < 5.00, the pIC50 (second compound 0.1 µM) was < 5.00 and the pIC50 (second compound 0.316 µM) was < 5.00. The pIC50 (second compound 1 µM) was < 5.00, the pIC50 (second compound 3.16 µM) was < 5.00 and the pIC50 (second compound 10 µM) was < 5.00. The viability, T/C [1] was 101%, the viability, T/C [2] was 96.5% and the viability, T/C [3] was 99.1%. For the same compound, the viability, T/C [4] was 95.1%, the viability, T/C [5] was 90.7% and the viability, T/C [6] was 77.3%. For the same compound, the viability, T/C [7] was 109%, the viability, T/C [8] was 96.4% and the viability, T/C [9] was 93.5%. The viability, T/C [10] was 95.1%, the viability, T/C [11] was 83.3% and the viability, T/C [12] was 71.7%. It also gave a viability, T/C [13] of 107%, a viability, T/C [14] of 101% and a viability, T/C [15] of 92.6%. It also gave a viability, T/C [16] of 91.2%, a viability, T/C [17] of 89.9% and a viability, T/C [18] of 74.3%. It also gave a viability, T/C [19] of 100%, a viability, T/C [20] of 94% and a viability, T/C [21] of 92.9%. The viability, T/C [22] was 87.9%, the viability, T/C [23] was 86.5% and the viability, T/C [24] was 70.9%. It also gave a viability, T/C [25] of 96.6%, a viability, T/C [26] of 91.8% and a viability, T/C [27] of 97.7%. The viability, T/C [28] was 92%, the viability, T/C [29] was 82.3% and the viability, T/C [30] was 79.5%. The viability, T/C [31] was 102%, the viability, T/C [32] was 99.9% and the viability, T/C [33] was 86.5%. The viability, T/C [34] was 86.4%, the viability, T/C [35] was 78% and the viability, T/C [36] was 76.5%.
For `COc1cc(C2c3cc4c(cc3C(OC3OC5COC(C)OC5C(O)C3O)C3COC(=O)C23)OCO4)cc(OC)c1O` (stereo unspecified) + COC1C(OC(N)=O)C(O)C(Oc2ccc3c(O)c(NC(=O)c4ccc(O)c(CC=C(C)C)c4)c(=O)oc3c2C)OC1(C)C, the pIC50 (second compound 0.0316 µM) was < 5.00, the pIC50 (second compound 0.1 µM) was < 5.00 and the pIC50 (second compound 0.316 µM) was < 5.00. The pIC50 (second compound 1 µM) was < 5.00, the pIC50 (second compound 3.16 µM) was < 5.00 and the pIC50 (second compound 10 µM) was < 5.00. For the same compound, the viability, T/C [1] was 94.7%, the viability, T/C [2] was 97.2% and the viability, T/C [3] was 102%. The viability, T/C [4] was 98%, the viability, T/C [5] was 90% and the viability, T/C [6] was 76.8%. The viability, T/C [7] was 108%, the viability, T/C [8] was 108% and the viability, T/C [9] was 102%. For the same compound, the viability, T/C [10] was 90.7%, the viability, T/C [11] was 92.7% and the viability, T/C [12] was 72.9%. For the same compound, the viability, T/C [13] was 102%, the viability, T/C [14] was 105% and the viability, T/C [15] was 91%. The viability, T/C [16] was 98.6%, the viability, T/C [17] was 89.5% and the viability, T/C [18] was 69.8%. The viability, T/C [19] was 102%, the viability, T/C [20] was 94.7% and the viability, T/C [21] was 98.6%. The viability, T/C [22] was 100%, the viability, T/C [23] was 87.1% and the viability, T/C [24] was 71.5%. For the same compound, the viability, T/C [25] was 101%, the viability, T/C [26] was 101% and the viability, T/C [27] was 99.1%. For the same compound, the viability, T/C [28] was 94.5%, the viability, T/C [29] was 91.4% and the viability, T/C [30] was 73.1%. The viability, T/C [31] was 100%, the viability, T/C [32] was 103% and the viability, T/C [33] was 100%. For the same compound, the viability, T/C [34] was 92.4%, the viability, T/C [35] was 86.8% and the viability, T/C [36] was 71.7%.
